Values joined by “and” are separate entries in the source; they are usually repeats but may differ in a detail not shown here. Identical values can stand only once.
System: Hepatitis B virus (HBV) genotype C
Assay: HBV DNA content in culture supernatants of HBV-infected PXB hepatocytes, quantitative PCR with TaqMan probe
Format: cell-based, human hepatitis B virus
Conditions: for DNA content of HBV in the culture supernatants: PXB hepatocytes, replicates No. 1-3
Protocol: PXB hepatocytes prepared from “PXB-Mouse (registered trademark)” (manufactured by PhoenixBio) were used as test samples to examine the effect of a change in virus load by adding 5-ALA or the like to a medium. […] Therefore, PXB-Mouse is utilized as a human in vivo prediction model of hepatitis virus infections in pharmacokinetic studies.
Hepatitis B virus (HBV) genotype C was suspended in dHCGM medium (DMEM+10% FBS, 44 mM NaHCO3, 15 μg/mL L-proline, 0.25 μg/mL insulin, 50 […], 5 ng/mL EGF, 0.1 mM Asc-2P, 2% DMSO) containing 4% polyethylene glycol in the virus load of 2×10^6 per well to give 250 μL/well of a HBV infection medium. The sequence of HBV genotype C is disclosed in a public data bank such as GenBank and the accession number is AB246345.1.
5-ALA and sodium ferrous citrate (SFC) were blended in dHCGM medium at the concentrations shown in Table 1 below to prepare 250 μL each of test media. As a positive control medium, a medium prepared by dissolving 2.5 nM entecavir (manufactured by Santa Cruz Biotechnology, Inc.) in dHCGM medium was used.
PXB hepatocytes, which are primary cultured liver cells isolated by a two-step collagenase perfusion procedure (Yamasaki C, et al. Drug Metab Pharmacokinet. 2010, 25:539-550.) from 12- to 16-week-old PXB mice having a body weight of 11 g or more, were suspended in Dulbecco's modified Eagle's medium (DMEM) with 10% fetal bovine serum (FBS) (DMEM+10% FBS) containing 100 IU/mL penicillin G, 100 μg/mL streptomycin and 20 mM HEPES, seeded in a 24-well plate coated with type I collagen at a density of 4×10^5 cells/well, and incubated at 37° C. under 5% CO2. The next day, the medium was removed, and 500 μL of DMEM+10% FBS was then added to each well. Thereafter, the medium was removed again, 250 μL of the above-mentioned HBV infection medium or a non-infection medium and 250 μL each of the above-mentioned test medium were added to each well to provide 500 μL each of evaluation media. The evaluation media were incubated at 37° C. under 5% CO2 for 20 to 28 hours. On day 1, 2, 7, 12 and 17 after HBV virus infection, the media were replaced by 500 μL each of the above-mentioned evaluation media. On day 12, 17 and 22 after the virus infection, culture supernatants were collected and the DNA content of HBV in the supernatants was determined by a quantitative PCR assay with TaqMan probe. The incubation period after the virus infection was 22 days. The results are shown in the following Tables 2 and 3 and the graph of FIG. 1. The ordinate of FIG. 1 indicates the DNA content of HBV in the culture supernatants.

sodium ferrous citrate [SFC]
DNA content of HBV in the culture supernatants (SFC 0.5 mM, day 12 after virus infection): 6.1 log copies/mL (2×) and 6.2 log copies/mL | proliferation of HBV virus (FIG. 1) (SFC 500 μM, day 12 and 17 after the virus infection, P<0.05): significantly inhibited | DNA content of HBV in the culture supernatants (SFC 0.5 mM, day 17 after virus infection): 6.3 log copies/mL and 6.4 log copies/mL (2×) | DNA content of HBV in the culture supernatants (SFC 0.5 mM, day 22 after virus infection): 6.5 log copies/mL

NCC(=O)CCC(=O)O [ALA, 5-aminolevulinic acid]
DNA content of HBV in the culture supernatants (ALA 1 mM, day 12 after virus infection): 6.0 log copies/mL and 6.1 log copies/mL and 5.8 log copies/mL | DNA content of HBV in the culture supernatants (ALA 1 mM, day 17 after virus infection): 6.0 log copies/mL (2×) and 5.8 log copies/mL | DNA content of HBV in the culture supernatants (ALA 1 mM, day 22 after virus infection): 6.1 log copies/mL and 5.9 log copies/mL and 6.0 log copies/mL

C=C1[C@H](CO)[C@@H](O)C[C@@H]1n1cnc2c(=O)[nH]c(N)nc21 [ETV, entecavir, reference compound]
DNA content of HBV in the culture supernatants (ETV 2.5 nM (positive control), day 12 after virus infection): 4.4 log copies/mL | DNA content of HBV in the culture supernatants (ETV 2.5 nM (positive control), day 17 after virus infection): 4.2 log copies/mL and 4.8 log copies/mL and 4.1 log copies/mL | DNA content of HBV in the culture supernatants (ETV 2.5 nM (positive control), day 22 after virus infection): 4.4 log copies/mL and 4.0 log copies/mL and 3.9 log copies/mL

From patent US20180125805A1, “PROPHYLACTIC/THERAPEUTIC AGENT FOR VIRUS INFECTIONS WHICH COMPRISES ALA COMPOUND” (SBI Pharmaceuticals Co., Ltd., priority 2015, published 2018)
